Measurements from patent US10570184B2, “GLP-1/glucagon receptor co-agonists for medical use” (Novo Nordisk A/S, priority 2014, dated 2020).
Starred links: 1 amine or outer side, 2 acyl side, 3 side chain; linkers in the order of their positions; H or OH if unused. Non-standard residues stand in square brackets, D forms with d. Residues, ends and D or L forms follow the SMILES beside them. Groups on a side chain read outwards from the residue. *: point of attachment. C18 diacid = O=C(O)CCCCCCCCCCCCCCCCC(=O)*; γGlu = O=C(O)[C@H](CCC(=O)[*:2])N[*:1]; AEEA = NCCOCCOCC(=O)O; Aib = CC(C)(N)C(=O)O

How the values were obtained:
[1] = Assay (III) ThT fibrillation assay for physical stability; format: physicochemical; conditions: 250 μM in 10 mM HEPES buffer, 37° C., shaking 960 rpm
Description: The purpose of this assay is to assess the physical stability of the glucagon derivatives of the invention in aqueous solutions. Low physical stability of a peptide may lead to amyloid fibril formation, which is observed as well-ordered, thread-like macromolecular structures in the sample, which eventually may lead to gel formation. This has traditionally been measured by visual inspection of the sample. However, that kind of measurement is very subjective and depending on the observer. Therefore, the application of a small molecule indicator probe is much more advantageous. Thioflavin T (ThT) is such a probe and has a distinct fluorescence signature when binding to fibrils [Naiki et al. (1989) Anal. Biochem. 177, 244-249; LeVine (1999) Methods. Enzymol. 309, 274-284]. […] The constant t0 is the time needed to reach 50% of maximum fluorescence. The two important parameters describing fibril formation are the lag-time calculated by t0−2τ and the apparent rate constant kapp 1/τ. Samples were prepared freshly before each assay. Each sample composition is described in the legends. The pH of the sample was adjusted to the desired value using appropriate amounts of concentrated NaOH and HCl. Thioflavin T was added to the samples from a stock solution in H2O to a final concentration of 1 μM. Sample aliquots of 200 μl (250 μM of the glucagon derivative in 10 mM HEPES buffer, pH 7.5) were placed in a 96 well microtiter plate (Packard OptiPlate™-96, white polystyrene). Usually, four or eight replica of each sample (corresponding to one test condition) were placed in one column of wells. The plate was sealed with Scotch Pad (Qiagen). Incubation at given temperature, shaking and measurement of the ThT fluorescence emission were done in a Fluoroskan Ascent FL fluorescence platereader (Thermo Labsystems). The temperature was adjusted to 37° C. The plate was incubated with orbital shaking adjusted to 960 rpm with an amplitude of 1 mm. Fluorescence measurement was done using excitation through a 444 nm filter and measurement of emission through a 485 nm filter. Each run was initiated by incubating the plate at the assay temperature for 10 min. The plate was measured every 20 minutes for a desired period of time. Between each measurement, the plate was shaken and heated as described. After completion of the ThT assay the four or eight replica of each sample was pooled and centrifuged at 20000 rpm for 30 minutes at 18° C. The supernatant was filtered through a 0.22 μm filter and an aliquot was transferred to a HPLC vial. The concentration of peptide in the initial sample and in the filtered supernatant was determined by reverse phase HPLC using an appropriate standard as reference. The percentage fraction the concentration of the filtered sample constituted of the initial sample concentration was reported as the recovery. The measurement points were saved in Microsoft Excel format for further processing and curve drawing and fitting was performed using GraphPad Prism. The background emission from ThT in the absence of fibrils was negligible. The data points are typically a mean of four or eight samples and shown with standard deviation error bars. Only data obtained in the same experiment (i.e. samples on the same plate) are presented in the same graph ensuring a relative measure of fibrillation between experiments. The data set may be fitted to Eq. (1).

[2] = biological target: T1, human GLP-1 receptor (Homo sapiens, UniProt P43220); experiment: Assay (I)(a) GLP-1 receptor activation, CRE luciferase reporter gene assay in BHK cells; format: cell-based; conditions: without presence of serum albumin; read-out: GLP-1R EC50 (pM) [Assay (I)(a)]
T1 construct: expressed in transfected cells; host or cells: membranes of BHK cells (parent BHKTS13), clone FCW467-12A
How it was run: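 Stable BHK clone expressing human GLP-1 receptor with CRE-driven firefly luciferase, 5×10EE3 cells/well in medium with 2% ovalbumin and 0.2% Pluronic F-68. Compounds at 1×10EE-13 to 1×10EE-6 M final, 3 h at 37° C.; luminescence read, EC50 (pM) from four-parameter fit.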

[3] = biological target: T1, human GLP-1 receptor; experiment: Assay (II)(a) GLP-1 receptor binding, 125I-GLP-1 displacement SPA on BHK membranes; conditions: without presence of serum albumin; read-out: GLP-1R IC50 (nM) [Assay (II)(a)]
How it was run: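 Membranes from BHK cells (clone FCW467-12A) stably expressing human GLP-1R were incubated with serially diluted compounds (8×10EE-13 to 8×10EE-7 M before addition) and [125I]-GLP-1-(7-36)NH2 with WGA SPA beads, 2 h at 30° C, pH 7.4. IC50 taken from displacement by non-linear regression. Run at ≤0.001% or 2.0% final serum albumin.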

T1 sequence (P43220 24-463): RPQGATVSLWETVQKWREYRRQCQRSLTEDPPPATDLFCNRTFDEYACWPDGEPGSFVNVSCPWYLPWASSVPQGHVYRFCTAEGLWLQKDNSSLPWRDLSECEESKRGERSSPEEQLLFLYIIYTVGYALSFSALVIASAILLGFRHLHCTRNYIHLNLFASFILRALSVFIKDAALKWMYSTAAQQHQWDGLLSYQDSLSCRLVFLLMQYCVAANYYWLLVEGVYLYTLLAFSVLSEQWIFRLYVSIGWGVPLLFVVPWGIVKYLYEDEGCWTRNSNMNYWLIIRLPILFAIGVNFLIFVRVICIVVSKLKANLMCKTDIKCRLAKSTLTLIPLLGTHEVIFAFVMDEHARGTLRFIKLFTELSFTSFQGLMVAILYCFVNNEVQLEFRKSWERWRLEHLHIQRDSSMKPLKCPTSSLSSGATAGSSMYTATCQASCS

ThT Assay Lag time (h) [Assay (III), pH 7.5] [1] [h]	EC50 [2] [pM]	IC50 [3] [nM]	Compound
45.0	7	–	CC[C@H](C)[C@H](NC(=O)[C@H](CC(C)C)NC(=O)[C@H](Cc1c[nH]c2ccccc12)NC(=O)[C@H](C)NC(=O)[C@@H](NC(=O)[C@H](Cc1ccccc1)NC(=O)[C@H](CC(=O)O)NC(=O)[C@H](CCCNC(=N)N)NC(=O)[C@H](C)NC(=O)[C@H](CCCNC(=N)N)NC(=O)[C@H](CCCNC(=N)N)NC(=O)[C@H](CC(C)C)NC(=O)[C@H](CC(=O)O)NC(=O)[C@H](CC(C)C)NC(=O)[C@H](Cc1ccc(O)cc1)NC(=O)[C@H](CCCCN)NC(=O)[C@H](CO)NC(=O)[C@H](Cc1ccc(O)cc1)NC(=O)[C@H](CC(=O)O)NC(=O)[C@H](CO)NC(=O)[C@@H](NC(=O)[C@H](Cc1ccccc1)NC(=O)[C@@H](NC(=O)CNC(=O)[C@H](CCC(N)=O)NC(=O)C(C)(C)NC(=O)[C@@H](N)Cc1c[nH]cn1)[C@@H](C)O)[C@@H](C)O)C(C)C)C(=O)N[C@@H](CCCCNC(=O)CC[C@H](NC(=O)CC[C@H](NC(=O)COCCOCCNC(=O)COCCOCCNC(=O)CC[C@H](NC(=O)CCCCCCCCCCCCCCCCC(=O)O)C(=O)O)C(=O)O)C(=O)O)C(=O)N[C@H](C(N)=O)[C@@H](C)O [Chem. 33, N^ε28-[(4S)-4-carboxy-4-[[(4S)-4-carboxy-4-[[2-[2-[2-[[2-[2-[2-[[(4S)-4-carboxy-4-(17-carboxyheptadecanoylamino)butanoyl]amino]ethoxy]ethoxy]acetyl]amino]ethoxy]ethoxy]acetyl]amino]butanoyl]amino]butanoyl]-[Aib2,Leu16,Arg20,Ala24,Ile27,Lys28]-Glucagon amide] (H-H[Aib]QGTFTSDYSKYLDLRRARDFVAWLIK([γGlu-γGlu-AEEA-AEEA-γGlu-C18 diacid])T-NH2)
45.0	–	0.3	CC[C@H](C)[C@H](NC(=O)[C@H](CC(C)C)NC(=O)[C@H](Cc1c[nH]c2ccccc12)NC(=O)[C@H](CCC(N)=O)NC(=O)[C@@H](NC(=O)[C@H](Cc1ccccc1)NC(=O)[C@H](CCC(=O)O)NC(=O)[C@H](CCCNC(=N)N)NC(=O)[C@H](C)NC(=O)[C@H](CCCNC(=N)N)NC(=O)[C@H](CCCNC(=N)N)NC(=O)[C@H](CC(C)C)NC(=O)[C@H](CC(=O)O)NC(=O)[C@H](CC(C)C)NC(=O)[C@H](Cc1ccc(O)cc1)NC(=O)[C@H](CCCCN)NC(=O)[C@H](CO)NC(=O)[C@H](CC(C)C)NC(=O)[C@H](CC(=O)O)NC(=O)[C@H](CO)NC(=O)[C@@H](NC(=O)[C@H](Cc1ccccc1)NC(=O)[C@@H](NC(=O)CNC(=O)[C@H](CCC(N)=O)NC(=O)C(C)(C)NC(=O)[C@@H](N)Cc1c[nH]cn1)[C@@H](C)O)[C@@H](C)O)C(C)C)C(=O)N[C@@H](CC(N)=O)C(=O)N[C@@H](CCCCNC(=O)CC[C@H](NC(=O)CC[C@H](NC(=O)COCCOCCNC(=O)COCCOCCNC(=O)CC[C@H](NC(=O)CCCCCCCCCCCCCCCCC(=O)O)C(=O)O)C(=O)O)C(=O)O)C(N)=O [Chem. 22, N^ε29-[(4S)-4-carboxy-4-[[(4S)-4-carboxy-4-[[2-[2-[2-[[2-[2-[2-[[(4S)-4-carboxy-4-(17-carboxyheptadecanoylamino)butanoyl]amino]ethoxy]ethoxy]acetyl]amino]ethoxy]ethoxy]acetyl]amino]butanoyl]amino]butanoyl]-[Aib2,Leu10,Leu16,Arg20,Glu21,Ile27,Lys29]-Glucagon amide] (H-H[Aib]QGTFTSDLSKYLDLRRAREFVQWLINK([γGlu-γGlu-AEEA-AEEA-γGlu-C18 diacid])-NH2; N-terminus assumed)
45.0	–	2.2	CC[C@H](C)[C@H](NC(=O)[C@H](CC(C)C)NC(=O)[C@H](Cc1c[nH]c2ccccc12)NC(=O)[C@H](C)NC(=O)[C@@H](NC(=O)[C@H](Cc1ccccc1)NC(=O)[C@H](CC(=O)O)NC(=O)[C@H](CCC(N)=O)NC(=O)[C@H](C)NC(=O)[C@H](CCCNC(=N)N)NC(=O)[C@H](CCCNC(=N)N)NC(=O)[C@H](CO)NC(=O)[C@H](CCC(=O)O)NC(=O)[C@H](CC(C)C)NC(=O)[C@H](Cc1ccc(O)cc1)NC(=O)[C@H](CCCCN)NC(=O)[C@H](CO)NC(=O)[C@H](Cc1ccc(O)cc1)NC(=O)[C@H](CC(=O)O)NC(=O)[C@H](CO)NC(=O)[C@@H](NC(=O)[C@H](Cc1ccccc1)NC(=O)[C@@H](NC(=O)CNC(=O)[C@H](CCC(N)=O)NC(=O)C(C)(C)NC(=O)[C@@H](N)Cc1c[nH]cn1)[C@@H](C)O)[C@@H](C)O)C(C)C)C(=O)N[C@@H](CO)C(=O)N[C@@H](CCCCNC(=O)CC[C@H](NC(=O)CC[C@H](NC(=O)COCCOCCNC(=O)COCCOCCNC(=O)CC[C@H](NC(=O)CCCCCCCCCCCCCCCCC(=O)O)C(=O)O)C(=O)O)C(=O)O)C(N)=O [Chem. 35, N^ε29-[(4S)-4-carboxy-4-[[(4S)-4-carboxy-4-[[2-[2-[2-[[2-[2-[2-[[(4S)-4-carboxy-4-(17-carboxyheptadecanoylamino)butanoyl]amino]ethoxy]ethoxy]acetyl]amino]ethoxy]ethoxy]acetyl]amino]butanoyl]amino]butanoyl]-[Aib2,Glu15,Ala24,Ile27,Ser28,Lys29]-Glucagon amide] (H-H[Aib]QGTFTSDYSKYLESRRAQDFVAWLISK([γGlu-γGlu-AEEA-AEEA-γGlu-C18 diacid])-NH2)
